Assay [1] can be described thus: Inhibition of tubulin polymerization at 20 uM relative to control.
Assay [2] has as its system HeLa. Description: Cytotoxicity against human HeLa cells after 72 hrs by MTT assay. It counts as functional, cell-based.
Assay [3] is described as follows: Inhibition of tubulin polymerization.
Assay [4] relates to HEp-2. Briefly: Cytotoxicity against human Hep2 cells after 72 hrs by MTT assay. It counts as functional, cell-based. The conditions noted are these: HEp-2, 72 h.
For assay [5], the system named is HEp-2. Description: Cytotoxicity against human cisplatin-resistant Hep2 cells after 72 hrs by MTT assay. In kind it is functional, cell-based. Conditions: HEp-2, 72 h.
The subject of assay [6] is RT-112. Briefly: Cytotoxicity against human RT112 cells after 72 hrs by MTT assay. In kind it is functional, cell-based. The conditions noted are these: RT-112, 72 h.
Assay [7] deals with T-24. Briefly: Cytotoxicity against human T24 cells after 72 hrs by MTT assay. In kind it is functional, cell-based. Conditions: T-24, 72 h.
Assay [8] deals with MIA PaCa-2. Description: Cytotoxicity against human MIAPaCa2 cells after 72 hrs by MTT assay. It counts as functional, cell-based. The conditions noted are these: MIA PaCa-2, 72 h.
In assay [9] the test system is SW-620. Description: Cytotoxicity against human SW620 cells after 72 hrs by MTT assay. It counts as functional, cell-based. Conditions: SW-620, 72 h.
Assay [10] relates to HeLa. Briefly: Cell cycle arrest in human HeLa cells assessed as accumulation of cells in G0/1 phase at 0.02 uM after 24 hrs using propidium iodide by flow cytometry. It counts as functional.
Assay [11] has as its system HeLa. Description: Cell cycle arrest in human HeLa cells assessed as accumulation of cells in G0/1 phase at 0.2 uM after 24 hrs using propidium iodide by flow cytometry. In kind it is functional.
The test system of assay [12] is HeLa. Briefly: Cell cycle arrest in human HeLa cells assessed as accumulation of cells in G0/1 phase at 2.2 uM after 24 hrs using propidium iodide by flow cytometry. It counts as functional.
Assay [13] relates to HeLa. Briefly: Cell cycle arrest in human HeLa cells assessed as accumulation of cells in S phase at 0.02 uM after 24 hrs using propidium iodide by flow cytometry. In kind it is functional.
In assay [14] the test system is HeLa. Briefly: Cell cycle arrest in human HeLa cells assessed as accumulation of cells in S phase at 0.2 uM after 24 hrs using propidium iodide by flow cytometry. It counts as functional.
The test system of assay [15] is HeLa. Description: Cell cycle arrest in human HeLa cells assessed as accumulation of cells in S phase at 2.2 uM after 24 hrs using propidium iodide by flow cytometry. It counts as functional.
Assay [16] concerns HeLa. Description: Cell cycle arrest in human HeLa cells assessed as accumulation of cells in G2/M phase at 0.02 uM after 24 hrs using propidium iodide by flow cytometry. It counts as functional.
In assay [17] the test system is HeLa. Briefly: Cell cycle arrest in human HeLa cells assessed as accumulation of cells in G2/M phase at 0.2 uM after 24 hrs using propidium iodide by flow cytometry. In kind it is functional.
The test system of assay [18] is HeLa. Briefly: Cell cycle arrest in human HeLa cells assessed as accumulation of cells in G2/M phase at 2.2 uM after 24 hrs using propidium iodide by flow cytometry. It counts as functional.
For assay [19], the system named is HeLa. Description: Induction of apoptosis in human HeLa cells assessed as cells containing hypodiploid DNA at 0.02 uM after 24 hrs by flow cytometry. It counts as functional.
For assay [20], the system named is HeLa. Briefly: Induction of apoptosis in human HeLa cells assessed as cells containing hypodiploid DNA at 0.2 uM after 24 hrs by flow cytometry. It counts as functional.
Assay [21] has as its system HeLa. Description: Induction of apoptosis in human HeLa cells assessed as cells containing hypodiploid DNA at 2.2 uM after 24 hrs by flow cytometry. In kind it is functional.
Assay [22] has as its system HeLa. Description: Induction of microtubule network disruption in human HeLa cells at 0.02 uM after 24 hrs by immunofluorescence assay. In kind it is functional, cell-based.
Assay [23] has as its system HeLa. Briefly: Induction of microtubule network disruption in human HeLa cells at 0.2 uM after 24 hrs by immunofluorescence assay. It counts as functional, cell-based.
Assay [24] has as its system HeLa. Description: Induction of microtubule network disruption in human HeLa cells at 2.2 uM after 24 hrs by immunofluorescence assay. In kind it is functional, cell-based.
Where [25] appears, read: Homo sapiens, HeLa, 72 h, read-out: IC50.

From ChEMBL document CHEMBL1156206, “Pyrazolone-fused combretastatins and their precursors: synthesis, cytotoxicity, antitubulin activity and molecular modeling studies” (Bioorg Med Chem, 2010) come the findings set out here.

Structures are written as SMILES. The source made the active and inactive calls. The calls are words filed in the database; no cut-off is given here.

In [1], `COc1cc(-c2c(-c3ccc4ccccc4c3)[nH][nH]c2=O)cc(OC)c1OC` returned an inhibition of 98%. Moreover, the IC50 in [2] (setting [25]) is 114 nM; in [3] it was 1900 nM.
`COC(=O)NNC(=O)/C(=C/c1ccc(OC)cc1)c1cc(OC)c(OC)c(OC)c1` had an inhibition in assay [1] of 26%. Further, in assay [2] (setting [25]), the half-inhibitory concentration (IC50) was 1310 nM.
The like results for `COC(=O)NNC(=O)/C(=C/c1cccc2ccccc12)c1cc(OC)c(OC)c(OC)c1` were, in that order, 55% and 1300 nM.
The corresponding values for `COC(=O)NNC(=O)/C(=C/c1ccc(OC)c(F)c1)c1cc(OC)c(OC)c(OC)c1` are 66% and 667 nM.
The like results for `COC(=O)n1[nH]c(=O)c(-c2cc(OC)c(OC)c(OC)c2)c1-c1cccc2ccccc12` were, in that order, 7% and > 50000 nM.
Take `COc1ccc(-c2[nH][nH]c(=O)c2-c2cc(OC)c(OC)c(OC)c2)cc1`: in assay [1], the inhibition amounted to 100%. For the same compound, the IC50 was 152 nM in assay [2] (setting [25]); 529 nM in [4]; 615 nM in assay [5]; 1890 nM in [6]; 1160 nM in assay [7]; 575 nM in assay [8]. Moreover, the figures for the half-inhibitory concentration (IC50) in [9] and in assay [3] were 455 nM and 2600 nM, respectively.
The compound `COC(=O)n1[nH]c(=O)c(-c2ccc(OC)c(OC)c2)c1-c1cc(OC)c(OC)c(OC)c1` came in with an inhibition in assay [1] of 0%. Also, the IC50 entry in assay [2] (hela) is listed as “Not Active”.
The compound `COC(=O)NNC(=O)/C(=C/c1ccc(OC)c(OC)c1)c1cc(OC)c(OC)c(OC)c1` returned an inhibition in assay [1] of 0%. For the same compound, in assay [2] (setting [25]), the IC50 was > 50000 nM.
`COC(=O)NNC(=O)/C(=C/c1cccc(F)c1)c1cc(OC)c(OC)c(OC)c1` had an inhibition in assay [1] of 10%. The IC50 in [2] (setting [25]) is > 50000 nM.
In the case of `COc1ccc(-c2[nH][nH]c(=O)c2-c2cc(OC)c(OC)c(OC)c2)cc1F`, the inhibition in assay [1] is 100%. In addition, the IC50 in [2] (setting [25]) came to 158 nM; in [4], 1180 nM; in assay [5], 684 nM; in assay [6], 3320 nM; in [7], 1150 nM; in assay [8] it was 556 nM. The midpoint of inhibition in assay [9], the IC50, lay at 487 nM.
`COC(=O)NNC(=O)/C(=C/c1ccc2ccccc2c1)c1cc(OC)c(OC)c(OC)c1` had an inhibition in assay [1] of 97%. Besides, the concentration for half-maximal inhibition (IC50) in assay [2] (setting [25]) came out at 48 nM; in assay [4], 54 nM; in assay [5], 51 nM; in assay [6], 196 nM; in assay [7], 185 nM; in assay [8] it was 127 nM. Also, the concentration for half-maximal inhibition (IC50) in [9] came out at 74.3 nM; in assay [3] it was 2700 nM. Moreover, the Activity is 60.2% in assay [10]; 2.7% in assay [11]; 1.2% in [12]; 28.3% in assay [13]; 10.8% in assay [14]; 7.9% in [15]. The Activity is 11.5% in assay [16]; 86.6% in [17]; 90.5% in [18]; 6.9% in [19]; 21.1% in assay [20]; 21.4% in [21]. Moreover, in assay [22], the result was inactive. Besides, the outcome in assay [23] and in assay [24] was Active.
In assay [1], `COC(=O)n1[nH]c(=O)c(-c2cc(OC)c(OC)c(OC)c2)c1-c1ccc(OC)c(OC)c1` gave an inhibition of 3%. In addition, the IC50 in assay [2] (setting [25]) was determined as 36300 nM.
The corresponding values for `COc1ccc(-c2c(-c3cc(OC)c(OC)c(OC)c3)[nH][nH]c2=O)cc1OC` are 4% and > 50000 nM.
The compound `COC(=O)n1[nH]c(=O)c(-c2cc(OC)c(OC)c(OC)c2)c1-c1ccc(OC)c(F)c1` returned an inhibition in assay [1] of 9%. The IC50 in [2] (setting [25]) came to 1720 nM.
The like results for `COC(=O)n1[nH]c(=O)c(-c2cc(OC)c(OC)c(OC)c2)c1-c1ccc2ccccc2c1` were, in that order, 3% and 523 nM.
The corresponding values for `COC(=O)n1[nH]c(=O)c(-c2cc(OC)c(OC)c(OC)c2)c1-c1ccc(OC)c(OC(C)=O)c1` are 0% and 337 nM.
In assay [1], `COc1ccc(/C=C\c2cc(OC)c(OC)c(OC)c2)cc1O` [COMBRETASTATIN A4] showed an inhibition of 89%. The IC50 in assay [2] (setting [25]) was determined as 2 nM; in [4] it was 5.5 nM; in assay [5] it was 5.2 nM; in [6] it was 21.6 nM; in assay [7], 8.7 nM; in [8], 7.2 nM. The IC50 in [9] was found to be 23 nM; in [3], 1700 nM. Further, the Activity in [18] turned out to be 91.1%. The outcome in [22] was Active.
In [1], `COC(=O)NNC(=O)/C(=C/c1cc(OC)c(OC)cc1OC)c1ccc(OC)c(OC)c1` came in with an inhibition of 0%. For the same compound, in assay [2] (hela), the half-maximal inhibitory concentration (IC50) result was “Not Active”.
In [1], `COC(=O)NNC(=O)/C(=C/c1ccc(OC)c(OC(C)=O)c1)c1cc(OC)c(OC)c(OC)c1` yielded an inhibition of 25%. The half-maximal inhibitory concentration (IC50) in assay [2] (setting [25]) stood at 498 nM.
On to `COC(=O)n1[nH]c(=O)c(-c2cc(OC)c(OC)c(OC)c2)c1-c1cccc(F)c1`, for which, in assay [1], the inhibition turned out to be 1%. Moreover, the half-inhibitory concentration (IC50) entry in assay [2] (hela) is reported as “Not Active”.
In turn, `COc1cc(-c2c(-c3cccc4ccccc34)[nH][nH]c2=O)cc(OC)c1OC` showed an inhibition in assay [1] of 0%. Besides, the IC50 in [2] (setting [25]) is > 50000 nM.
`COc1ccc(-c2c(-c3cc(OC)c(OC)cc3OC)[nH][nH]c2=O)cc1OC` registered an inhibition in assay [1] of 0%. The half-inhibitory concentration (IC50) in [2] (setting [25]) is > 50000 nM.
Compound `COC(=O)NNC(=O)/C(=C/c1cc(OC)c(OC)c(OC)c1)c1ccc(OC)c(OC)c1` gave an inhibition in assay [1] of 0%. In addition, in [2] (setting [25]), the IC50 was > 50000 nM.
In the case of `COc1cc(-c2c(-c3cccc(F)c3)[nH][nH]c2=O)cc(OC)c1OC`, the inhibition in [1] came to 0%. Also, the half-inhibitory concentration (IC50) in assay [2] (setting [25]) is > 50000 nM.
In assay [1], `COC(=O)n1[nH]c(=O)c(-c2ccc(OC)c(OC)c2)c1-c1cc(OC)c(OC)cc1OC` showed an inhibition of 2%. Also, the concentration for half-maximal inhibition (IC50) result in assay [2] (hela) is listed as “Not Active”.
Turning to `COc1ccc(-c2[nH][nH]c(=O)c2-c2cc(OC)c(OC)c(OC)c2)cc1OC`, the inhibition in assay [1] worked out at 31%. In addition, in [2] (setting [25]), the IC50 is 5270 nM.
The corresponding values for `COC(=O)n1[nH]c(=O)c(-c2cc(OC)c(OC)c(OC)c2)c1-c1ccc(OC)cc1` are 0% and 959 nM.
`COc1ccc(-c2[nH][nH]c(=O)c2-c2cc(OC)c(OC)c(OC)c2)cc1O` showed an inhibition in assay [1] of 99%. Moreover, the IC50 in assay [2] (setting [25]) came to 176 nM; in assay [4], 1140 nM; in [5], 709 nM; in [6] it was 2080 nM; in assay [7], 619 nM; in assay [8] it was 462 nM. In addition, the 50% inhibitory concentration (IC50) in assay [9] is 543 nM; in assay [3], 1700 nM.
